Source: patent US20260234125A1, “CYCLIC AMINE DERIVATIVE, AND COMPOSITION AND USE THEREOF” (SHANGHAI JINGXIN BIOMEDICAL CO., LTD., priority 2023, published 2026)

Assays:
[1] = test system: Salmonella typhimurium TA1537; assay: Salmonella typhimurium reverse mutation test, TA1537; type: cell-based; design: key: + indicates a positive mutagenic result; − indicates a negative mutagenic result
Protocol: (§1) The revived strains or a single colony from the master plate were inoculated into the broth, and cultured in a thermostat gas bath vibrator at 100 to 120 rpm and 37±1° C. for 10 to 16 hours, marked and stored for later use. The bottom agar medium (containing an appropriate amount of agar, Vogel-Bonner buffer, 20% glucose solution and 20% magnesium sulfate solution) was poured into a six-well plate, approximately […] into each well, and allowed to cool and solidify naturally, marked each well and stored for later use.
(§2) Three wells were set up in each group for parallel experiments. The top agar medium was sterilized under high pressure and kept warm at about 65° C. In each test tube, 0.1 mL of negative control (DMSO) or positive control or test sample, 0.1 mL of bacterial solution suspension, 0.5 mL of phosphate buffer (0.2M PBS) (−S9) or 0.5 mL of S9 mixed solution (+S9) and 2.5 mL top culture medium were added, after vortex mixing, and then quickly and evenly spread on the culture dish which was already spreaded with the bottom agar medium. After natural cooling and solidification, the culture dish was inverted and placed in a 37° C. incubator for 48 to 72 hours. After culturing for 48 to 72 hours, the culture dish was taken out, and the number of revertant colonies in each well was counted, the growth background was observed under a microscope to determine whether there was antibacterial or bactericidal activity, and the experimental results were recorded.

[2] = test system: Salmonella typhimurium TA98; assay: Salmonella typhimurium reverse mutation test, TA98; type: cell-based; design: key: + indicates a positive mutagenic result; − indicates a negative mutagenic result
Protocol: as §1, §2

[3] = test system: Salmonella typhimurium TA100; assay: Salmonella typhimurium reverse mutation test, TA100; type: cell-based; design: key: + indicates a positive mutagenic result; − indicates a negative mutagenic result
Protocol: as §1, §2

human Apo(a) protein = molecular target: T1, human Apo(a) protein (Homo sapiens, UniProt P08519); assay: BLI affinity of compounds to Apo(a); type: binding; conditions: biotinylated apolipoprotein(a) on SA sensor, compound 100 nM
T1 construct: biotin (biotinylated)
T1 sequence (P08519 20-2040): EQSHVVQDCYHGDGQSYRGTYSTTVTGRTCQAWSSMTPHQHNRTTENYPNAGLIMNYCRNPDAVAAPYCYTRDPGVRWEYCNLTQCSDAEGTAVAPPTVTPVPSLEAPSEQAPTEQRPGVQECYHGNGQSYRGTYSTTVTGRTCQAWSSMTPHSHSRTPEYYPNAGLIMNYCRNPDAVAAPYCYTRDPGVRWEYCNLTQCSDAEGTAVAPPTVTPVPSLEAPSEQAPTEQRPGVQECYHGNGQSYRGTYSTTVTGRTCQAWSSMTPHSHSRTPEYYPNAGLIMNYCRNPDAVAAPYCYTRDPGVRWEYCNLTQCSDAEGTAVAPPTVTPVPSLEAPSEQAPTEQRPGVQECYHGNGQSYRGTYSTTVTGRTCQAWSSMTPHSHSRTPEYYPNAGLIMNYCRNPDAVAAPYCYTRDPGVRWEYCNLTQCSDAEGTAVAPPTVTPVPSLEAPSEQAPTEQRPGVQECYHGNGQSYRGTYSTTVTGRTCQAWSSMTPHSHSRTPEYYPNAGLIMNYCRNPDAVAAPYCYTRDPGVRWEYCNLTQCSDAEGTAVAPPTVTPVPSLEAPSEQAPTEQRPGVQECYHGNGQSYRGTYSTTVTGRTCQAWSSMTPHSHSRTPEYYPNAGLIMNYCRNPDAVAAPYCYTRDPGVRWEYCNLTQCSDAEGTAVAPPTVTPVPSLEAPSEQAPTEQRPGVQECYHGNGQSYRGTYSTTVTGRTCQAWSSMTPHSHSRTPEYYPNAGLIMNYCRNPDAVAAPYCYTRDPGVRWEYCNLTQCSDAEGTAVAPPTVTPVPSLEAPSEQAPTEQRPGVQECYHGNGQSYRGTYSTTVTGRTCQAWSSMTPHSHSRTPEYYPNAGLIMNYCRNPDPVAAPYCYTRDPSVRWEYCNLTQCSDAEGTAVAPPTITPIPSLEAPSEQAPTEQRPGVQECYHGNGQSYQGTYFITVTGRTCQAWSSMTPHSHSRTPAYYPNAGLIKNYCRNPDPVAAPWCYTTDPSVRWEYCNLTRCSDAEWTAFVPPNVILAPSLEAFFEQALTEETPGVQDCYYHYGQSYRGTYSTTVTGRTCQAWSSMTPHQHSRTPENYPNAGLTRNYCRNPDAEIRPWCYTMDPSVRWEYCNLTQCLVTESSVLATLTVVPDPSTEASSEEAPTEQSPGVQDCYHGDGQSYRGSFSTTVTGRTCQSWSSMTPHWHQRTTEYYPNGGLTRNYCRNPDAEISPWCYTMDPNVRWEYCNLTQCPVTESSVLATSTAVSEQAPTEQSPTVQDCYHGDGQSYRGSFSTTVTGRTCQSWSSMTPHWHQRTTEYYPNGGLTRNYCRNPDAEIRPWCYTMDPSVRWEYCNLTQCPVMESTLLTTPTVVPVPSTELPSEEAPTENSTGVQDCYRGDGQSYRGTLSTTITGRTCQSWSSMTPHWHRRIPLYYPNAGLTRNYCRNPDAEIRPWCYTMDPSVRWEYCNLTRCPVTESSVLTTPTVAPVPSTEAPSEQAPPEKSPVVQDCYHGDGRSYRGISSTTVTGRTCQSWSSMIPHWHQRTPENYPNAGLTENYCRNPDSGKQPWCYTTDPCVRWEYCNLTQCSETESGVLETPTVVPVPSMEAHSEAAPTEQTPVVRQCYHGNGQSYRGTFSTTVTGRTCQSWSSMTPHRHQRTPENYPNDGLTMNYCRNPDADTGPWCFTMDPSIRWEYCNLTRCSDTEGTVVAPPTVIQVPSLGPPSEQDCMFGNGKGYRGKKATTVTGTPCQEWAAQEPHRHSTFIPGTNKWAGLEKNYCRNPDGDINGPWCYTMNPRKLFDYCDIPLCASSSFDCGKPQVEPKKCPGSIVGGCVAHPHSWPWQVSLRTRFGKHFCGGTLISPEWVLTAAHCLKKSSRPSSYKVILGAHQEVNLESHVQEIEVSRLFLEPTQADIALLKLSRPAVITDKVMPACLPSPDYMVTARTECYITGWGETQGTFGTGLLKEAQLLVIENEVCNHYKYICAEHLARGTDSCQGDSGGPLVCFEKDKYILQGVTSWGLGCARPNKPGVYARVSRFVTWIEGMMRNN
Protocol: • 1. Experimental purpose: The purpose of this test is to test the affinity of the compounds of the present disclosure to Apo(a) • 2. Experimental instruments and reagents: • Molecular interaction analyzer (ForteBio Octet red 96e), • SA sensor (ForteBio), • 96-well plates were purchased from Greine, • 3. Experimental methods:
Prepared two 96-well plates, one as a sample plate and another as a pre-wett plate, curing buffer was added to a 200 μL well of the pre-wet plate, and the SA sensor was pre-wetted for at least ten minutes. All reagents and samples were added to another black sample plate, after the sample addition was completed, the sensor plate and the sample plate were placed into the ForteBio Octet red 96e instrument. The program was set up in sequence for detection. The experimental temperature was set to 30° C. and the acquisition frequency was set at 5.0 Hz. The biosensor was run in 1×PBS, pH7.4, 0.02% Tween-20, 0.1% BSA in the first column for 60 seconds, which was the baseline step. Biotinylated apolipoprotein(a) was diluted to 40 μg/ml with 1×PBS, pH7.4, 0.02% Tween-20, 0.1% BSA, and added to the second column, where it was run for a period of time until the amount of curing on the sensor reaches 2.0 nm. The biosensor was run in 1×PBS, pH7.4, 0.02% Tween-20, 0.1% BSA in the third column for 60 seconds, which was the baseline step. The compound was diluted to 100 nM with 1×PBS, pH7.4, 0.02% Tween-20, 0.1% BSA, and added to the fourth column, where the sensor was run for 60 seconds. The sensor was run in 1×PBS, pH7.4, 0.02% Tween-20, 0.1% BSA in the third column for 120 seconds, during this process, the compound dissociated from the sensor. The affinity constant KD reflects the size of the interaction binding ability. When the concentration of the analyte is at KD, the equilibrium signal Req is half of Rmax.

SMILES	mutagenicity ([1]; TA1537, +S9, 62 μg/dish)	mutagenicity ([1]; TA1537, +S9, 185 μg/dish)	mutagenicity ([1]; TA1537, +S9, 556 μg/dish)	mutagenicity ([1]; TA1537, +S9, 1667 μg/dish)	mutagenicity ([1]; TA1537, +S9, 5000 μg/dish)	mutagenicity ([1]; TA1537, −S9, 62 μg/dish)	mutagenicity ([1]; TA1537, −S9, 185 μg/dish)	mutagenicity ([1]; TA1537, −S9, 556 μg/dish)	mutagenicity ([1]; TA1537, −S9, 1667 μg/dish)	mutagenicity ([1]; TA1537, −S9, 5000 μg/dish)	mutagenicity ([2]; TA98, +S9, 62 μg/dish)	mutagenicity ([2]; TA98, +S9, 185 μg/dish)	mutagenicity ([2]; TA98, +S9, 556 μg/dish)	mutagenicity ([2]; TA98, +S9, 1667 μg/dish)	mutagenicity ([2]; TA98, +S9, 5000 μg/dish)	mutagenicity ([2]; TA98, −S9, 62 μg/dish)	mutagenicity ([2]; TA98, −S9, 185 μg/dish)	mutagenicity ([2]; TA98, −S9, 556 μg/dish)	mutagenicity ([2]; TA98, −S9, 1667 μg/dish)	mutagenicity ([2]; TA98, −S9, 5000 μg/dish)	further results
O=C(O)[C@@H](Cc1cccc(CN(Cc2cccc(C[C@H](C(=O)O)[C@H]3CCNC3)c2)Cc2cccc(C[C@H](C(=O)O)[C@H]3CCNC3)c2)c1)[C@H]1CCNC1 [Comparative Example 1, reference compound]	−	−	−	−	−	−	−	−	−	−	−	−	+	+	+	−	+	+	+	+	mutagenicity ([3]; TA100, +S9, 62 μg/dish): −; mutagenicity ([3]; TA100, +S9, 185 μg/dish): −; mutagenicity ([3]; TA100, +S9, 556 μg/dish): −; mutagenicity ([3]; TA100, +S9, 1667 μg/dish): −; mutagenicity ([3]; TA100, +S9, 5000 μg/dish): −; mutagenicity ([3]; TA100, −S9, 62 μg/dish): −; mutagenicity ([3]; TA100, −S9, 185 μg/dish): −; mutagenicity ([3]; TA100, −S9, 556 μg/dish): −; mutagenicity ([3]; TA100, −S9, 1667 μg/dish): −; mutagenicity ([3]; TA100, −S9, 5000 μg/dish): −
O=C(O)[C@@H](Cc1cccc(CN(Cc2cccc(C[C@H](C(=O)O)[C@H]3CCNC3)c2)C(=O)c2cccc(C[C@H](C(=O)O)[C@H]3CCNC3)c2)c1)[C@H]1CCNC1 [Example 5]	−	−	−	−	−	−	−	−	−	−	−	−	−	−	−	−	−	−	−	−	Kd (human Apo(a) protein): 10.9 nM; mutagenicity ([3]; TA100, +S9, 62 μg/dish): −; mutagenicity ([3]; TA100, +S9, 185 μg/dish): −; mutagenicity ([3]; TA100, +S9, 556 μg/dish): −; mutagenicity ([3]; TA100, +S9, 1667 μg/dish): −; mutagenicity ([3]; TA100, +S9, 5000 μg/dish): −; mutagenicity ([3]; TA100, −S9, 62 μg/dish): −; mutagenicity ([3]; TA100, −S9, 185 μg/dish): −; mutagenicity ([3]; TA100, −S9, 556 μg/dish): −; mutagenicity ([3]; TA100, −S9, 1667 μg/dish): −; mutagenicity ([3]; TA100, −S9, 5000 μg/dish): −
